The test system of this test is αAmy3 SRC promoter. The experiment in a line: Rice embryo transient expression assay, SRC-35Smp:Luc reporter (luciferase). To be noted: rice embryos, 1 μM ABA or 50 mM sorbitol, 24 h. It counts as cell-based. The method, then:
FIG. 3. The highly conserved GKSKSF domain (KSD) is essential for SKINs to antagonize the function of SnRK1A. Rice embryos were transfected with plasmids, incubated in medium with 100 mM glucose (+S) or without glucose (−S) for 24 h, and assayed for luciferase activity. The luciferase activity in rice embryos bombarded with the SRC-35S mp-Luc construct only and in +S medium was set to 1×, and other values were calculated relative to this value. Error bars indicate the SE for three replicate experiments. (A) Plasmid constructs. (B) Rice embryos were co-transfected with effector Ubi:SnRK1A, Ubi:SKIN1 or Ubi:SKIN(Ri) alone and reporter SRC-35Smp:Luc, or co-transfected with effectors Ubi:SnRK1A and Ubi:SKIN or Ubi:SKIN(Ri) and reporter SRC-35Smp:Luc. (C) Total cellular proteins were extracted from rice embryos transfected with Ubi:SnRK1A, Ubi:SKIN or Ubi:SnRK1A and Ubi:SKIN by particle bombardment and subjected to Western blot analysis using antibodies against SnRK1A and the HA tag fused to at the N-terminus of SKINs. (D) Rice embryos were co-transfected with effectors Ubi:SnRK1A and Ubi:SKIN1 (wild-type or truncated) and reporter SRC-35Smp:Luc. (E) Rice embryos were co-transfected with effectors Ubi:SnRK1A and Ubi:SKIN (wild-type, KSD deleted, or KSD replaced with 6 Ala) and reporter SRC-35Smp:Luc.
FIG. 21. ABA and sorbitol suppress the function of SnRK1A in activation of αAmy3 SRC promoter. Rice embryos and barley aleurones were transfected with reporter SRC-35Smp:Luc with or without effectors, incubated with or without ABA for 24 h, and assayed for luciferase activity. The luciferase activity in embryos or aleurones bombarded with the SRC-35S mp-Luc construct only and in +S medium was set to 1×, and other values were calculated relative to this value. Error bars indicate the SE for three replicate experiments. (A) Plasmid constructs. (B) Barley aleurones were transfected with effector Ubi:SnRK1A, Ubi:SKIN1 or Ubi:SKIN(Ri) alone and reporter SRC-35Smp:Luc, or co-transfected with effectors Ubi:SnRK1A and Ubi:SKIN or Ubi:SKIN(Ri) and reporter SRC-35Smp:Luc. (C) Rice embryos (upper panel) were transfected with or without Ubi:SnRK1A and incubated with or without 1 μM ABA or 50 mM sorbitol, and barley aleurones (lower panel) were transfected with or without Ubi:SnRK1A and incubated with 5 μM ABA or 400 mM sorbitol.
Rice embryos were prepared for particle bombardment as described (Chen et al., 2006). The rice embryos were bombarded with reporter, effectors and internal control at a ratio of 4:2:1 for single effector or 4:2:2:1 for two effectors. The internal control (Ubi::GUS) was used to normalize the reporter enzyme activity because different transformation efficiency might occur in each independent experiment. Bombarded rice embryos were divided into two halves, with half being incubated in MS liquid medium containing 100 mM Glc, and the other half grown in MS liquid containing 100 mM mannitol, for 24 h. Total proteins were extracted for embryos with a cell lysis buffer [0.1 M K-phosphate, pH 7.8, 1 mM EDTA, 10% glycerol, 1% triton X-100, and 7 mM β-mercaptoethanol]. GUS assay buffer [0.1 M Na-phosphate, 20 mM EDTA, 0.2% sarcosine, 0.2% Triton X-100, and 20 mM β-mercaptoethanol] was used for GUS activity assay. The activity assay of GUS and luciferase were described elsewhere (Lu et al., 1998). All bombardments were repeated at least three times.

With `CC1=CC(=O)CC(C)(C)[C@@]1(O)/C=C/C(C)=C\C(=O)O` [ABA, abscisic acid], the “Effect on αAmy3 SRC promoter (luciferase activity), alone and SnRK1A-activated” value is listed as “suppressed”.

The values above are taken from patent US20180273970A1, “PLASMID, TRANSFORMED PLANT CELL AND TRANSGENIC PLANT COMPRISING THE SAME, AND METHODS FOR PREPARING A TRANSGENIC PLANT AND FOR INCREASING YIELD OF A PLANT UNDER ABIOTIC STRESSES” (Academia Sinica, priority 2014, published 2018).
